Data published in patent US20060100226A1, “2-Thiopyrimidinones as therapeutic agents” (priority 2004, published 2006).

target: T1, murine MEKK2 (mMEKK2) (Mus musculus, UniProt Q61083); assay: TR-FRET kinase assay (mMEKK2/MBP); type: biochemical; details: substrate biotin MBP, 60 minutes at room temperature
T1 sequence (Q61083 1-619): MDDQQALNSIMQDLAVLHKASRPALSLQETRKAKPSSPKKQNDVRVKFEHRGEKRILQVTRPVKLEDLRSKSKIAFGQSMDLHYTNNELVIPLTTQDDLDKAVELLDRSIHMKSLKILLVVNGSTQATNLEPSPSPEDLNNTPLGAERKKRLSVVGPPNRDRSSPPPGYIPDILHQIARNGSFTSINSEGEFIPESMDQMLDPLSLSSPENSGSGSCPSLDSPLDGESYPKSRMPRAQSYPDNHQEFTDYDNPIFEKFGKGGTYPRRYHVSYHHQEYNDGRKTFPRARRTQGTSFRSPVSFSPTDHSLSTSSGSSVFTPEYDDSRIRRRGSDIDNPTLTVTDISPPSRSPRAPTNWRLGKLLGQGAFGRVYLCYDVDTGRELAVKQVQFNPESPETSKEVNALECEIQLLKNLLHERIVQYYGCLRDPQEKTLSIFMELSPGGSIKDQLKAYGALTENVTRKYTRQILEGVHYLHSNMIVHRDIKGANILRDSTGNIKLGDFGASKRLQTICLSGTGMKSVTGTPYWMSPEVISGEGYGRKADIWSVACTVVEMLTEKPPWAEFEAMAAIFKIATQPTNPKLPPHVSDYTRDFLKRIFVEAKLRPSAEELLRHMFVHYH
Method: In one approach, MEKK2 inhibitory activity of compounds of the invention can be assessed using the time-resolved Fluorescence Resonance Energy Transfer (TR-FRET) assay detailed in Example 5. In this assay, the excitation energy of one fluorescent molecule (the donor) is transferred by a resonance mechanism to a nearby second fluorescent molecule (the acceptor), which then releases its fluorescent energy through fluorescent emission. This fluorescent energy is measured using a time-resolved fluorescence measurement protocol (LANCE high count 615/665); excitation occurred with 1,000 flashes at 325 nm, measurement was delayed by 100 μs, and data were acquired for 50 μs at 615 and 665 nm.
A TR-FRET kinase assay was used to screen potential inhibitors of MEKK2. The assay was performed as follows: Compounds to be tested were weighed and solubilized in DMSO (Sigma) to a stock concentration of 10 mM. Serial dilutions starting from 1 mM were prepared with additional DMSO. These dilutions were further diluted to 250 μM in kinase reaction buffer [20 mM Hepes pH 7.5, 5 mM MgCl2, 1 mM DTT (Dithiothreitol-Sigma), 1 mM NaVO4 (sodium vanadate-Sigma). A 25 μl aliquot of this solution was transferred to a black 96-well nonbinding surface microplate (Fisher). A stock aliquot containing […] of murine MEKK2 (mMEKK2) was diluted in the kinase reaction buffer and incubated with the compounds on the microplate for 10 minutes. A 25 μl aliquot of a 138 ng solution of biotin MBP (myelin basic protein—Upstate Biotechnology) was added to the reaction followed by 25 ul of a 25 ng solution of anti-phospho MBP antibody (Upstate Biotechnology) diluted in kinase reaction buffer. Finally an aliquot (50 μl) of a 5 uM solution of ATP (adenosine triphosphate) was added and the reaction was allowed to proceed for 60 minutes at room temperature. The reaction was stopped by the addition of 50 μL of a 12.5 ng solution of europium labeled anti-mouse IgG (Perkin Elmer) and 45 ng of Cy5 labeled streptavidin (Jackson Immunoresearch) in termination buffer (20 mM Hepes pH 7.5, 100 mM EDTA; Sigma). The assay was allowed to equilibrate for 45 minutes before placing the plate on the Victor™ plate reader. The plate was read using the 615/665 LANCE protocol.

IC50 [µM] | Compound
> 40 | N#Cc1c(-c2cccc(C(=O)O)c2)nc(SCCCn2cnc3c(NCc4ccccc4)ncnc32)[nH]c1=O [Example 4j]
> 40 | N#Cc1c(-c2cccc(O)c2)nc(SCc2cccc(NCC3CCN(c4ccncc4)CC3)c2)[nH]c1=O [Example 4k]
< 5 | N#Cc1c(-c2cccc(O)c2)nc(SCc2cccc(NC(=O)c3ccc(Cl)c(Cl)c3)c2)[nH]c1=O [Example 4l]
< 5 | N#Cc1c(-c2cccc(F)c2)nc(SCc2cccc(NC(=O)c3ccc(Cl)c(Cl)c3)c2)[nH]c1=O [Example 4o]
< 5 | N#Cc1c(-c2cccc(NCC[C@@H](O)[C@@H](O)CO)c2)nc(SCc2cccc(NC(=O)c3ccc(Cl)c(Cl)c3)c2)[nH]c1=O [Example 4y]

target: T1, murine MEKK2 (mMEKK2); assay: MEKK2 PhosphoELISA (mMEKK2/MKK4); type: biochemical; details: substrate MKK4/SKK1 (unactive), ATP final 10 μM, O.D. 450 nm
Description: Another useful method for assessing protein kinase inhibition, and specifically MEKK2 inhibition, of compounds of the invention involves the MEKK2 phospho-antibody enzyme-linked immunosorbent assay (PhosphoELISA). This screening panel, which involves relatively few steps, is a useful indicator of potential inhibitors of MEKK2. Reactions to murine MEKK2 are observed as optical density measurements at an absorbance of 450 nm. Inhibitory activities can be expressed in terms of IC50, where IC50 is the molar concentration of compound required to inhibit protein kinase binding by 50%.
A phospho-antibody enzyme-linked immunosorbent assay (PhosphoELISA) was used to screen potential inhibitors of MEKK2. The assay was performed as follows: Compounds to be tested were weighed and solubilized in DMSO (Sigma) to a stock concentration of 10 mM. Serial dilutions starting from 1 mM were prepared with additional DMSO. These dilutions were further diluted to 250 μM in kinase reaction buffer [20 mM Hepes pH 7.5, 5 mM MgCl2, 1 mM DTT (Dithiothreitol-Sigma), 1 mM NaVO4 (sodium vanadate- Sigma). A 25 μl aliquot of this solution was transferred to a glutathione coated 96-well microplate (Pierce). A stock aliquot containing 50-125 ng of murine MEKK2 (mMEKK2) was added to each well and incubated on the microplate for 10 minutes at room temperature. A 25 μl solution of MKK4/SKK1 (unactive) was diluted 1:200 in kinase assay buffer and added to the reaction plate followed by 50 μl of 25 μM ATP (adenosine triphosphate) to afford a final well concentration of 10 μM. The reaction was allowed to proceed for 60 minutes at room temperature before washing 3 times with wash buffer [100 mM phosphate pH 7.5, 0.05% TWEEN 20 (Sigma)]. A solution of anti-phospho MKK4/SEK1 antibody (Calbiochem) and biotin anti rabbit IgG (Jackson Immunoresearch) was diluted 1:2500 in kinase reaction buffer and added to the appropriate wells. The reaction was incubated for 60 minutes at room temperature. The microplate was washed 3 times with wash buffer and 100 ul of streptavidin horseradish peroxidase (HRP-Pierce) was added and incubated for 30 minutes at room temperature. The microplate was washed 3 times with wash buffer and 100 μl of TMB (3,3′,5,5′-tetramethylbenzidine-Sigma) was added. The assay was allowed to develop for 15-20 minutes then the reaction was stopped with the addition of 100 μl of 0.2 N sulfuric acid. The optical density (O.D.) of the plate was read on the Victor™ plate reader using the absorbance at 450 nm.

Compound | IC50 [µM]
N#Cc1c(-c2ccc(-c3cc4ccccc4s3)cc2)nc(SCc2cccc(NC(=O)c3ccc(Cl)c(Cl)c3)c2)[nH]c1=O [Example 2aa, N-{3-[4-(4-Benzo[b]thiophen-2-yl-phenyl)-5-cyano-6-oxo-1,6-dihydro-pyrimidin-2-ylsulfanylmethyl]-phenyl}-3,4-dichloro-benzamide] | < 1
N#Cc1c(-c2cccc(OC(F)(F)F)c2)nc(SCc2cccc(NC(=O)c3ccc(Cl)c(Cl)c3)c2)[nH]c1=O [Example 2cc, 3,4-Dichloro-N-{3-[5-cyano-6-oxo-4-(3-trifluoromethoxy-phenyl)-1,6-dihydro-pyrimidin-2-ylsulfanylmethyl]-phenyl}-benzamide] | < 1
CC(C)(C)OC(=O)n1c(-c2cccc(-c3nc(SCc4cccc(NC(=O)c5ccc(Cl)c(Cl)c5)c4)[nH]c(=O)c3C#N)c2)cc2ccccc21 [Example 2jj, 2-(3-{5-Cyano-2-[3-(3,4-dichloro-benzoylamino)-benzylsulfanyl]-6-oxo-1,6-dihydro-pyrimidin-4-yl}-phenyl)-indole-1-carboxylic acid tert-butyl ester] | < 1
N#Cc1c(-c2cccc(-c3cc4ccccc4[nH]3)c2)nc(SCc2cccc(NC(=O)c3ccc(Cl)c(Cl)c3)c2)[nH]c1=O [Example 2kk, 3,4-Dichloro-N-(3-{5-cyano-4-[3-(1H-indol-2-yl)-phenyl]-6-oxo-1,6-dihydro-pyrimidin-2-ylsulfanylmethyl}-phenyl)-benzamide] | < 5
N#Cc1c(-c2c[nH]c3ccccc23)nc(SCc2cccc(NC(=O)c3ccc(Cl)c(Cl)c3)c2)[nH]c1=O [Example 2ll, 3,4-Dichloro-N-{3-[5-cyano-4-(1H-indol-3-yl)-6-oxo-1,6-dihydro-pyrimidin-2-ylsulfanylmethyl]-phenyl}-benzamide] | < 5
N#Cc1c(-c2c[nH]c3ccc(Br)cc23)nc(SCc2cccc(NC(=O)c3ccc(Cl)c(Cl)c3)c2)[nH]c1=O [Example 2mm, N-{3-[4-(5-Bromo-1H-indol-3-yl)-5-cyano-6-oxo-1,6-dihydro-pyrimidin-2-ylsulfanylmethyl]-phenyl}-3,4-dichloro-benzamide] | < 1
N#Cc1c(-c2cccc(Br)c2)nc(SCc2cccc(NC(=O)c3ccc(Cl)c(Cl)c3)c2)[nH]c1=O [Example 2nn, N-{3-[4-(3-Bromo-phenyl)-5-cyano-6-oxo-1,6-dihydro-pyrimidin-2-ylsulfanylmethyl]-phenyl}-3,4-dichloro-benzamide] | < 1
COc1cccc(-c2nc(SCc3cccc(NC(=O)c4ccc(F)c(F)c4)c3)[nH]c(=O)c2C#N)c1 [Example 2oo, N-{3-[5-Cyano-4-(3-methoxy-phenyl)-6-oxo-1,6-dihydro-pyrimidin-2-ylsulfanylmethyl]-phenyl}-3,4-difluoro-benzamide] | < 5
COc1cccc(-c2nc(SCc3cccc(NC(=O)Nc4ccc(Cl)c(Cl)c4)c3)[nH]c(=O)c2C#N)c1 [Example 3a, 1-{3-[5-Cyano-4-(3-methoxy-phenyl)-6-oxo-1,6-dihydro-pyrimidin-2-ylsulfanylmethyl]-phenyl}-3-(3,4-dichloro-phenyl)-urea] | < 1

Continued, values first:

IC50 [µM] | Compound
> 40 | COc1cccc(-c2nc(SCc3cccc(NCc4cccc(OCCN(C)C)c4)c3)[nH]c(=O)c2C#N)c1 [Example 4a]
20 | CN(CCOc1ccc(-c2nc(SCc3cccc(NC(=O)c4ccc(Cl)c(Cl)c4)c3)[nH]c(=O)c2C#N)cc1)c1ccncc1 [Example 4aa]
> 40 | COc1cccc(-c2nc(SCc3cccc(NCc4cnc(O)nc4O)c3)[nH]c(=O)c2C#N)c1 [Example 4d]
> 40 | CCc1nc(C)c(-c2nc(SCc3cccc(NC(=O)c4ccc(Cl)c(Cl)c4)c3)[nH]c(=O)c2C#N)[nH]1 [Example 4dd]
> 40 | COc1cccc(-c2nc(SCCCn3cnc4c(NC(=O)c5ccccc5)ncnc43)[nH]c(=O)c2C#N)c1 [Example 4ee]
> 40 | COc1cccc(-c2nc(SCCCn3cnc(NC(=O)c4ccc(Cl)c(Cl)c4)n3)[nH]c(=O)c2C#N)c1 [Example 4ff]
< 20 | N#Cc1c(-c2cccc(C(=O)O)c2)nc(SCc2cccc(NC(=O)c3ccc(Cl)c(Cl)c3)c2)[nH]c1=O [Example 4m]
< 5 | N#Cc1c(-c2cccc(S(=O)(=O)NCc3ccccc3)c2)nc(SCc2cccc(NC(=O)c3ccc(Cl)c(Cl)c3)c2)[nH]c1=O [Example 4p]
< 1 | N#Cc1c(-c2cccc(-n3cccc3)c2)nc(SCc2cccc(NC(=O)c3ccc(Cl)c(Cl)c3)c2)[nH]c1=O [Example 4q]
< 5 | N#Cc1c(-c2ccc(-n3ccnc3)cc2)nc(SCc2cccc(NC(=O)c3ccc(Cl)c(Cl)c3)c2)[nH]c1=O [Example 4r]
< 1 | N#Cc1c(-c2ccc(-n3cccc3)cc2)nc(SCc2cccc(NC(=O)c3ccc(Cl)c(Cl)c3)c2)[nH]c1=O [Example 4s]
< 20 | N#Cc1c(-c2ccc(-n3cccn3)cc2)nc(SCc2cccc(NC(=O)c3ccc(Cl)c(Cl)c3)c2)[nH]c1=O [Example 4t]
< 10 | N#Cc1c(-c2cccc(-n3ccnc3)c2)nc(SCc2cccc(NC(=O)c3ccc(Cl)c(Cl)c3)c2)[nH]c1=O [Example 4u]
< 1 | N#Cc1c(-c2cccc(N3CCCC3)c2)nc(SCc2cccc(NC(=O)c3ccc(Cl)c(Cl)c3)c2)[nH]c1=O [Example 4w]
